Results: US5036080A, “(D)-6-fluoro-2,3-dihydro-2',5-dioxo-spiro[4H-1-benzo pyran-4,4'-imidazolide]-2-carboxamide compounds” (Sanwa Kagaku Kenyusho Co., Ltd., priority 1988, dated 1991)

Tests used:
[1] = test system: aldose reductase; conditions: cited from earlier work
[2] = target: T1, aldose reductase (Rattus norvegicus, UniProt P07943); assay: Inhibition of aldose reductase activity (procedure of Kador and Sharpless); type: biochemical; conditions: water-soluble extracts of crystalline lenses from rats
T1 construct: water-soluble extracts of crystalline lenses extracted from tested rats; from tissue; host or cells: rat crystalline lens, water-soluble extract
Method: Using water-soluble extracts of crystalline lenses extracted from tested rats, the inhibition of these compounds was determined.

Row | Compound | activity of inhibition to the aldose reductase in vitro and vivo tests, in comparison with other agents (in words) [1] | IC50 [2] [µM]
1 | NC(=O)[C@H]1CC2(NC(=O)NC2=O)c2cc(F)ccc2O1 (single isomer, unassigned) [(d)-6-fluoro-2,3-dihydro-2',5'-dioxo-spiro[4H-1-benzopyran-4,4'-imidazolidine]-2-carboxamide] | remarkable activity of inhibition to the aldose reductase | 
2 | COC(=O)N1C(=O)NC2(CC(C(N)=O)Oc3ccc(F)cc32)C1=O (single isomer, unassigned) [Example 3] |  | 0.045
3 | CC(C)(C)C(=O)OCN1C(=O)NC2(C[C@H](C(N)=O)Oc3ccc(F)cc32)C1=O (single isomer, unassigned) [Example 6, (d)-6-Fluoro-1'-pivaloyloxymethyl-2,3-dihydro-2',5'-dioxo-spiro[4H-1-benzopyran-4,4'-imidazolidine]-2-carboxamide] |  | 100
4 | Cc1ccc(S(=O)(=O)N2C(=O)NC3(C[C@H](C(N)=O)Oc4ccc(F)cc43)C2=O)cc1 (single isomer, unassigned) [Example 16-A, (d)-6-fluoro-1'-(p-toluenesulfonyl)-2,3-dihydro-2',5'-dioxo-spiro[4H-1-benzopyran-4,4'-imidazolidine]-2-carboxamide] |  | 100
